One compound from ChEMBL document CHEMBL6153147 (J Med Chem, 2025) can be followed below.

Data set [1] has as its target TRAF2 and NCK-interacting protein kinase (Homo sapiens) (UniProt Q9UKE5). Description: Inhibition of human TNIK assessed as residual activity at 10 uM by kinome selectivity profiling analysis relative to control.
Data set [2] addresses Calcium/calmodulin-dependent protein kinase kinase 2 (Homo sapiens) (UniProt Q96RR4). Description: Inhibition of human CaMKK2 assessed as residual activity at 10 uM by kinome selectivity profiling analysis relative to control.
Data set [3] in a line: Stability of compound in rat hepatocytes. In kind it is ADME, cell-based, Hepatocyte.
The target of another data set is Cytochrome P450 2B6 (Homo sapiens, UniProt P20813). Description: Inhibition of CYP2B6 in human liver microsomes using bupropion as substrate preincubated with compound followed by substrate addition measured after 10 mins in presence of NADPH by LC-MS/MS analysis. In kind it is ADME, Microsome. For orientation: Liver microsomes are a subcellular fraction often used to study metabolism.
Cytochrome P450 2B6, sequence (P20813 whole entry): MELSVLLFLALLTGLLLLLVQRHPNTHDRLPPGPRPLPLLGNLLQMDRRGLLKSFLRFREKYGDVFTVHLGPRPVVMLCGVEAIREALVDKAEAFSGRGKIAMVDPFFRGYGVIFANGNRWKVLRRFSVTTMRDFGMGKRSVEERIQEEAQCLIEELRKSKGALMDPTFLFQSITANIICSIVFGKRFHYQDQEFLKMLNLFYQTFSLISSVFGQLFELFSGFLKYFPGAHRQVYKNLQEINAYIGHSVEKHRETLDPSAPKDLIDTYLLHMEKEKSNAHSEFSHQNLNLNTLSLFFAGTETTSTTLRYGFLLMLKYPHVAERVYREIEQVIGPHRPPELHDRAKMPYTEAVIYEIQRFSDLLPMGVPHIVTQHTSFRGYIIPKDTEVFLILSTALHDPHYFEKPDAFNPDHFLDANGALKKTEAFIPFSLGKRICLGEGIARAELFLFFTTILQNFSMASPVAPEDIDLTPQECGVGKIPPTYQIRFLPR

The next data set has as its target Cytochrome P450 2C9 (Homo sapiens, UniProt P11712). Description: Inhibition of CYP2C9 in human liver microsomes using diclofenac as substrate preincubated with compound followed by substrate addition measured after 10 mins in presence of NADPH by LC-MS/MS analysis. In kind it is ADME, Microsome.
A short description of data set [4]: Cmax in C57BL/6 mouse at 1 mg/kg, iv measured for 0.5 to […] htr by LC-MS/MS analysis. Format: ADME, organism-based. The following applies: in vivo, time 0.5-12 hrs.
A short description of data set [5]: Oral bioavailability in C57BL/6 mouse at 10 mg/kg measured for 0.5 to […] htr by LC-MS/MS analysis. Format: ADME, organism-based. The following applies: in vivo, time 0.5-12 hrs.
Data set [6] in a line: Metabolic stability in human liver microsomes assessed as half life preincubated for 5 mins followed by NADPH addition by LC-MS/MS analysis. Format: ADME, Microsome.
Data set [7] can be described thus: Metabolic stability in dog liver microsomes assessed as intrinsic clearance preincubated for 5 mins followed by NADPH addition by LC-MS/MS analysis. Format: ADME, Canis lupus familiaris, Microsome. As to conditions: read-out: CLH.
Data set [8] can be described thus: Toxicity in BALB/c mouse xenografted with human K562 cells assessed as adverse effects at 10 to 20 mg/kg, IG for 11 days treated on every 3 to 4 days. As to conditions: in vivo, po, 264 h, dose 10-20 mg/kg, time 11 day. In kind it is organism-based.
The nature of data set [9]: Effect on mitochondrial membrane integrity in HEK293T cells at 10 uM incubated for 24 hrs by JC-1 dye based analysis. In kind it is toxicity, cell-based. The following applies: human, hek-293t.

Cytochrome P450 2C9, sequence (P11712 whole entry): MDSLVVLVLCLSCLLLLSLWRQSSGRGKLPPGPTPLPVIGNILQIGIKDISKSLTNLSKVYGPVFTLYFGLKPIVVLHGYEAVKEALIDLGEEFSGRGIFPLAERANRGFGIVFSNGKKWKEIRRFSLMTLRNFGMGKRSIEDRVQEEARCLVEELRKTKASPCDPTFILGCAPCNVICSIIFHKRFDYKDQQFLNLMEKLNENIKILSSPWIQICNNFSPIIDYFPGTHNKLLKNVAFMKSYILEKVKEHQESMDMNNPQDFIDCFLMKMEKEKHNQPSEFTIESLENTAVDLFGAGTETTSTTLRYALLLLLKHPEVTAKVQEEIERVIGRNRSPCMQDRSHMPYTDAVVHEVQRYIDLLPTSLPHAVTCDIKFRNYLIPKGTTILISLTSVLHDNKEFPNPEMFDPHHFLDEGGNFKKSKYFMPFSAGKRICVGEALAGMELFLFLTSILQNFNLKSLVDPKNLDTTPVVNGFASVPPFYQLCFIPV
TRAF2 and NCK-interacting protein kinase (Homo sapiens), sequence (Q9UKE5 whole entry, looked up): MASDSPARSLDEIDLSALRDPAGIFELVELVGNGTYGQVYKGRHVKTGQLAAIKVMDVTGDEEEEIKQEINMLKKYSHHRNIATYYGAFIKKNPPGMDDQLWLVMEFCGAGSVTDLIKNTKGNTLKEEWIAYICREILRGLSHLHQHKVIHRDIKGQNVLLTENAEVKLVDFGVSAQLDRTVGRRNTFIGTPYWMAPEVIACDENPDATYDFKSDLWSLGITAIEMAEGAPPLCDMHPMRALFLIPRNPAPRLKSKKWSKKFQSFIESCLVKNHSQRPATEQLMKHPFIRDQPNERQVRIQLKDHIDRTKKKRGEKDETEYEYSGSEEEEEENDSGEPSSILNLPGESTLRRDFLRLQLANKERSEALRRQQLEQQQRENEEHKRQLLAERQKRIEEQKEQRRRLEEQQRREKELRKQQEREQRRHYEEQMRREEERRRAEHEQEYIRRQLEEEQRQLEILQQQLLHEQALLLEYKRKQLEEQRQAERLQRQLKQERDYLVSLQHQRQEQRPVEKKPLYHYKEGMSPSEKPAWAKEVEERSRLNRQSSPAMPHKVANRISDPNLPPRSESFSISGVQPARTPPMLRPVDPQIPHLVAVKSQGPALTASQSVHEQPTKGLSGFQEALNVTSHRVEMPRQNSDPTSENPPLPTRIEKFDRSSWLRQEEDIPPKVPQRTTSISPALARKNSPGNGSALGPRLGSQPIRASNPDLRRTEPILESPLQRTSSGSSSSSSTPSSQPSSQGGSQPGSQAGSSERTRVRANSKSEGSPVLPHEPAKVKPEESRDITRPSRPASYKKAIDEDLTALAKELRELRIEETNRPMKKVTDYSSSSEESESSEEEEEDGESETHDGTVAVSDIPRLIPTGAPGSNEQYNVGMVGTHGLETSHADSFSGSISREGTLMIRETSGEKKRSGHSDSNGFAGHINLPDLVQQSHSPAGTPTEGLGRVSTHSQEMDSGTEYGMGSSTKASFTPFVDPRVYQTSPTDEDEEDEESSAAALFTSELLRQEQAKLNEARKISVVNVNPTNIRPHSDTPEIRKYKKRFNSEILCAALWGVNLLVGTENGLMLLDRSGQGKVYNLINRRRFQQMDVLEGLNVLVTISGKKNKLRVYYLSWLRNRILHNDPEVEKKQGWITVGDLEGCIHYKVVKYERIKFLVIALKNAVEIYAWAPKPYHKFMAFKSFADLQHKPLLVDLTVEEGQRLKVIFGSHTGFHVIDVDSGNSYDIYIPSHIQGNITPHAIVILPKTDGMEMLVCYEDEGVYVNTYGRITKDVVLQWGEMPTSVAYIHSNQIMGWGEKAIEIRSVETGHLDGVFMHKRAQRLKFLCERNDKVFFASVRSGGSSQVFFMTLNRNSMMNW
Calcium/calmodulin-dependent protein kinase kinase 2 (Homo sapiens), sequence (Q96RR4 2-588 limits assumed): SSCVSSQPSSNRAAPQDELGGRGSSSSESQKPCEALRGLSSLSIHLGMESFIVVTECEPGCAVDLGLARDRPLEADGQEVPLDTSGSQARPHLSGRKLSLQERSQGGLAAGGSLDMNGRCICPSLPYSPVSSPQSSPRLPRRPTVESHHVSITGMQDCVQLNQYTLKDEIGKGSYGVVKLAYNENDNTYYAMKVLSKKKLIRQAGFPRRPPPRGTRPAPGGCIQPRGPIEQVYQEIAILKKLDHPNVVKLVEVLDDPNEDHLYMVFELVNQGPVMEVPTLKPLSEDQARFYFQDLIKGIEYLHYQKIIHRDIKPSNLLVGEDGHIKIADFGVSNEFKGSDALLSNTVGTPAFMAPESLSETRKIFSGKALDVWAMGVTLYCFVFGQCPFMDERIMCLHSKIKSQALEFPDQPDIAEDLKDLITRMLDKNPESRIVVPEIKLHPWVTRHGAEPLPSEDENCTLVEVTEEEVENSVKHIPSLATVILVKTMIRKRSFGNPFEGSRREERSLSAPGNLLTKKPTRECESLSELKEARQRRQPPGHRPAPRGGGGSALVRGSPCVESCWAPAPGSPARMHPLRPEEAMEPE

With `CC[C@@H]1C(=O)N(C)c2cnc(Nc3cc(N4CCN(C)CC4)cc(Cl)c3OCCCO)nc2N1C1CCCC1`, the Activity was 77% in data set [1], 73% in [2], “Non-toxic” in data set [8] and “Non-toxic” in data set [9]. In addition, the Stability entry in data set [3] was “Stable”. Besides, the IC50 (in general, the concentration at which inhibition is half-maximal) at Cytochrome P450 2B6 is > 10 µM; on Cytochrome P450 2C9 it was 9.6 µM. Besides, the highest level in [4] (Cmax) was 264 ng/mL. Besides, in data set [5], the bioavailability – broadly, dose-corrected exposure relative to a reference, in per cent – worked out at 45%. Besides, in [6], the half-life (commonly the time needed for the level to fall by half in the phase considered) is 30.3 min. Further, in [7], the CLint scaled stood at 474 mL/min/kg.
